In PubChem BioAssay AID248 (DTP/NCI, 2004):
“And” between values parts separate entries of the source, which are not always exact repeats. Equal values may be shown once. Toxic doses and inconclusive results are not listed. No stated cut-off is given here; in the data, active means T/C of 150% or more; inactive means T/C below 125%.

Tested on: L1210 leukemia ip in BDF1 mice, survival T/C
Experiment: NCI In Vivo Anticancer Drug Screen. Data for tumor model L1210 Leukemia (intraperitoneal) in B6D2F1 (BDF1) mice
Conditions: endpoint: mean survival time, higher = longer survival
How it was run: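 Antitumor effect is assessed in tumor-bearing animals. Survival in the compound arm is compared with a vehicle-dosed control arm and expressed as their quotient.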

[1] = dose: 100.0 mg/kg/injection, schedule: Q01DX001 (ip), vehicle: saline
[2] = dose: 100.0 mg/kg/injection, schedule: Q01DX009 (ip), vehicle: saline
[3] = dose: 200.0 mg/kg/injection, schedule: Q01DX001 (ip), vehicle: saline
[4] = dose: 200.0 mg/kg/injection, schedule: Q01DX009 (ip), vehicle: saline
[5] = dose: 400.0 mg/kg/injection, schedule: Q01DX001 (ip), vehicle: saline
[6] = dose: 100.0 mg/kg/injection, schedule: Q04DX003 (ip), vehicle: Klucel (hydroxypropylcellulose) (HPC)
[7] = dose: 200.0 mg/kg/injection, schedule: Q04DX003 (ip), vehicle: Klucel (hydroxypropylcellulose) (HPC)
[8] = dose: 100.0 mg/kg/injection, schedule: Q01DX001 (ip), vehicle: Klucel (hydroxypropylcellulose) (HPC)
[9] = dose: 200.0 mg/kg/injection, schedule: Q01DX001 (ip), vehicle: Klucel (hydroxypropylcellulose) (HPC)
[10] = dose: 400.0 mg/kg/injection, schedule: Q01DX001 (ip), vehicle: Klucel (hydroxypropylcellulose) (HPC)
[11] = dose: 100.0 mg/kg/injection, schedule: Q01DX001 (ip), vehicle: saline with Tween-80
[12] = dose: 100.0 mg/kg/injection, schedule: Q01DX009 (ip), vehicle: saline with Tween-80
[13] = dose: 100.0 mg/kg/injection, schedule: Q04DX003 (ip), vehicle: saline with Tween-80
[14] = dose: 200.0 mg/kg/injection, schedule: Q01DX001 (ip), vehicle: saline with Tween-80
[15] = dose: 200.0 mg/kg/injection, schedule: Q01DX009 (ip), vehicle: saline with Tween-80
[16] = dose: 200.0 mg/kg/injection, schedule: Q04DX003 (ip), vehicle: saline with Tween-80
[17] = dose: 400.0 mg/kg/injection, schedule: Q01DX001 (ip), vehicle: saline with Tween-80
[18] = dose: 400.0 mg/kg/injection, schedule: Q04DX003 (ip), vehicle: saline with Tween-80
[19] = dose: 100.0 mg/kg/injection, schedule: Q04DX003 (ip), vehicle: alcohol
[20] = dose: 200.0 mg/kg/injection, schedule: Q04DX003 (ip), vehicle: alcohol
[21] = dose: 100.0 mg/kg/injection, schedule: Q04DX003 (ip), vehicle: saline
[22] = dose: 200.0 mg/kg/injection, schedule: Q04DX003 (ip), vehicle: saline
[23] = dose: 400.0 mg/kg/injection, schedule: Q04DX003 (ip), vehicle: saline

Measured: T/C

O=[N+]([O-])c1ccc(N/N=C(\Cc2ccccc2)CC(O)(C(F)(F)F)C(F)(F)F)c([N+](=O)[O-])c1
inactive: dose: 25.0 mg/kg/injection, schedule: Q01DX009 (ip), vehicle: gum acacia 92 % of control | dose: 50.0 mg/kg/injection, schedule: Q01DX009 (ip), vehicle: gum acacia 96 % of control | dose: 100.0 mg/kg/injection, schedule: Q01DX001 (ip), vehicle: gum acacia 106 % of control | dose: 100.0 mg/kg/injection, schedule: Q01DX009 (ip), vehicle: gum acacia 98 % of control | dose: 200.0 mg/kg/injection, schedule: Q01DX001 (ip), vehicle: gum acacia 100 % of control | dose: 200.0 mg/kg/injection, schedule: Q01DX009 (ip), vehicle: gum acacia 94 % of control | dose: 400.0 mg/kg/injection, schedule: Q01DX001 (ip), vehicle: gum acacia 98 % of control | dose: 400.0 mg/kg/injection, schedule: Q01DX009 (ip), vehicle: gum acacia 93 % of control

CCCCCCCCCCCN1C(=O)c2ccccc2S1(=O)=O
inactive: dose: 222.0 mg/kg/injection, schedule: Q01DX Z (ip), vehicle: methylcellulose (MC) 91 % of control | dose: 333.0 mg/kg/injection, schedule: Q01DX Z (ip), vehicle: methylcellulose (MC) 105 % of control | dose: 500.0 mg/kg/injection, schedule: Q01DX Z (ip), vehicle: methylcellulose (MC) 102 % of control

O=C(CBr)CCS(=O)(=O)c1ccc(Cl)cc1
inactive: dose: 5.0 mg/kg/injection, schedule: Q01DX009 (ip), vehicle: saline with Tween-80 102 % of control | dose: 5.0 mg/kg/injection, schedule: Q04DX003 (ip), vehicle: saline with Tween-80 101 % of control | dose: 10.0 mg/kg/injection, schedule: Q01DX009 (ip), vehicle: saline with Tween-80 104 % of control | dose: 10.0 mg/kg/injection, schedule: Q04DX003 (ip), vehicle: saline with Tween-80 103 % of control | dose: 20.0 mg/kg/injection, schedule: Q01DX009 (ip), vehicle: saline with Tween-80 97 % of control | dose: 20.0 mg/kg/injection, schedule: Q04DX003 (ip), vehicle: saline with Tween-80 97 % of control

O=C1CCCCCN1
inactive: [1] 101 % of control | [2] 100 % of control | dose: 100.0 mg/kg/injection, schedule: Q04DX002 (ip), vehicle: other 98 % of control | [3] 101 % of control | [4] 100 % of control | dose: 200.0 mg/kg/injection, schedule: Q04DX002 (ip), vehicle: other 95 % of control | [5] 103 % of control | dose: 400.0 mg/kg/injection, schedule: Q04DX002 (ip), vehicle: other 101 % of control

CC(C)=CN1CC2CCCC(CC2)C1
inactive: [6] 98 % of control | [7] 101 % of control

C/C(=N\N)C(=O)S(=O)(=O)c1c(C)cc(C)cc1C
inactive: [8] 97 % of control | [9] 97 % of control | [10] 101 % of control

CCOc1ccc(NC(=S)NC(=O)c2cccc([N+](=O)[O-])c2)cc1
inactive: [11] 93 % of control | [12] 92 % of control and 95 % of control | dose: 100.0 mg/kg/injection, schedule: Q04DX002 (ip), vehicle: saline with Tween-80 93 % of control and 95 % of control | [13] 98 % of control | [14] 101 % of control | [15] 92 % of control and 98 % of control | dose: 200.0 mg/kg/injection, schedule: Q04DX002 (ip), vehicle: saline with Tween-80 97 % of control and 107 % of control | [16] 96 % of control | [17] 102 % of control | dose: 400.0 mg/kg/injection, schedule: Q01DX009 (ip), vehicle: saline with Tween-80 97 % of control and 106 % of control | dose: 400.0 mg/kg/injection, schedule: Q04DX002 (ip), vehicle: saline with Tween-80 104 % of control and 107 % of control | [18] 91 % of control

CC(O)[CH2][Sb]([Br])([Br])([c]1ccccc1)[c]1ccccc1 (stereo not drawn)
inactive: dose: 5.0 mg/kg/injection, schedule: Q04DX002 (ip), vehicle: saline with Tween-80 97 % of control | dose: 10.0 mg/kg/injection, schedule: Q04DX002 (ip), vehicle: saline with Tween-80 104 % of control | dose: 20.0 mg/kg/injection, schedule: Q04DX002 (ip), vehicle: saline with Tween-80 104 % of control

O=C(Nc1cc(Cl)c(Cl)cc1Cl)Nc1cc(Cl)ccc1Oc1ccc(Cl)cc1S(=O)(=O)O
inactive: dose: 50.0 mg/kg/injection, schedule: Q04DX003 (ip), vehicle: alcohol 97 % of control | [19] 103 % of control | [20] 103 % of control

CC1=C(C)CC(C(=O)c2ccccc2)=C(C(=O)c2ccccc2)C1
inactive: [8] 95 % of control | [9] 90 % of control | [10] 90 % of control

CC1(C)CC2(C)CC(=O)C1C(C(=O)O)C2C(=O)O (stereo not drawn)
inactive: [1] 98 % of control | [2] 93 % of control | [21] 96 % of control | [3] 90 % of control | [4] 93 % of control | [22] 91 % of control | [5] 91 % of control | dose: 400.0 mg/kg/injection, schedule: Q01DX009 (ip), vehicle: saline 92 % of control | [23] 89 % of control

CC1CC(CN2c3ccccc3Sc3ccccc32)C(C)N1C (stereo not drawn)
inactive: dose: 12.5 mg/kg/injection, schedule: Q04DX003 (ip), vehicle: acetone 101 % of control | dose: 25.0 mg/kg/injection, schedule: Q04DX003 (ip), vehicle: acetone 120 % of control

NC(=O)NC1C(c2ccccc2)=NOC1C(N)=O (stereo not drawn)
inactive: dose: 25.0 mg/kg/injection, schedule: Q04DX003 (ip), vehicle: Klucel (hydroxypropylcellulose) (HPC) 94 % of control | dose: 50.0 mg/kg/injection, schedule: Q01DX009 (ip), vehicle: Klucel (hydroxypropylcellulose) (HPC) 88 % of control | dose: 50.0 mg/kg/injection, schedule: Q04DX003 (ip), vehicle: Klucel (hydroxypropylcellulose) (HPC) 105 % of control | dose: 100.0 mg/kg/injection, schedule: Q01DX009 (ip), vehicle: Klucel (hydroxypropylcellulose) (HPC) 93 % of control | [6] 96 % of control

Oc1ccc(C(O)(c2ccccc2)c2ccc(O)c3ccccc23)c2ccccc12
inactive: [12] 96 % of control | [15] 91 % of control

Cc1ccc(S(=O)(=O)N/N=C(\CSc2ccc([N+](=O)[O-])cc2)c2ccccc2)cc1
inactive: [13] 87 % of control | [16] 92 % of control | [18] 88 % of control

CCCCCCCCCCCC(=O)N(C)C
inactive: [6] 109 % of control | [7] 111 % of control | dose: 400.0 mg/kg/injection, schedule: Q04DX003 (ip), vehicle: Klucel (hydroxypropylcellulose) (HPC) 109 % of control

CCCCOP(=O)(NNC=O)OCCCC
inactive: [21] 96 % of control | [22] 98 % of control | [23] 95 % of control

CC(c1ccccc1)C(O)c1ccccc1 (stereo not drawn)
inactive: [11] 97 % of control | [14] 91 % of control | [17] 91 % of control

Cc1ccc(C(=O)N/N=C/C(CC(O)C(O)CO)=N/NC(=O)c2ccc(C)cc2)cc1 (stereo not drawn)
inactive: [19] 93 % of control | [20] 96 % of control
